In article doi:10.1101/2024.02.23.581731v1 (biorxiv, 2024):

Biological target: T1, h5-HT3AR (Homo sapiens, UniProt P46098, R200K)
T1 sequence (P46098 24-478 R200K): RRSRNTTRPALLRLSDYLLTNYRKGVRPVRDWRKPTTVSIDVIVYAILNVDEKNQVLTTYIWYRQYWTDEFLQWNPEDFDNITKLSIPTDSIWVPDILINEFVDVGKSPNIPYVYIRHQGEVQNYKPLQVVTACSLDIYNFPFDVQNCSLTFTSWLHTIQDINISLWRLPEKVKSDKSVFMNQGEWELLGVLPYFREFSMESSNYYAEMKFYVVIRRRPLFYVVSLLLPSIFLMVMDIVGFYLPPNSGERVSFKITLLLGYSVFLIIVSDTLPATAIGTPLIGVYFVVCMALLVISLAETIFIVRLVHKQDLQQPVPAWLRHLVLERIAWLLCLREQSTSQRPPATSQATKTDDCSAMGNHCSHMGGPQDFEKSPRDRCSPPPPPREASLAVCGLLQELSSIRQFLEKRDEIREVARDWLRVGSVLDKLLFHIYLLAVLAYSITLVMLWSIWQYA
Assay: FLIPR Blue membrane potential assay, inhibition of 5-HT response
Type: cell-based

Question: `Cc1ccc(Sc2ccccc2N2CCNCC2)c(C)c1` [vortioxetine] was tested. Which IC50 did it give?
Answer: 0.094 µM
